What is called Papp A→B is how fast a substance crosses the layer from the apical side. The low end stands for poor permeation, the high end for ready permeation. As a reminder, the Papp B→A is how fast a substance crosses the layer from the basolateral side. What is called efflux ratio is the permeability from basolateral to apical divided by that in the opposite direction, in the common usage.

The series is described as follows: Permeability assay in Caco-2 cells. Conditions: human. The procedure: Preparation of Caco-2 Cells: 50 μL and 25 mL of cell culture medium were added to each well of the Transwell insert and reservoir, respectively. And then the HTS transwell plates were incubated at 37° C., 5% CO2 for 1 hour before cell seeding. […] Cell culture medium was replaced every other day, beginning no later than 24 hours after initial plating.
Preparation of Stock Solutions: The stock solutions of control and test compounds were prepared in DMSO at the concentration of 10 mM. Digoxin, Prazosin and propranolol were used as control compounds in this assay.
Assay Procedures: The Caco-2 plate was removed from the incubator and washed twice with pre-warmed HBSS (10 mM HEPES, pH 7.4), and then incubated at 37° C. for 30 minutes. The stock solutions of controls and Test compounds were diluted in DMSO to get 1 mM solutions and then diluted with HBSS (10 mM HEPES, pH 7.4) to get 5 μM working solutions. The final concentration of DMSO in the incubation system was 0.5%. To determine the rate of drug transport in the apical to basolateral direction. Add 125 μL of the test compounds to the Transwell insert (apical compartment), and transfer 50 μL sample (DO sample) immediately from the apical compartment to a new 96-well plate. Fill the wells in the receiver plate (basolateral compartment) with 235 μL of HBSS (10 mM HEPES, pH 7.4). To determine the rate of drug transport in the basolateral to apical direction. Add 285 μL of the test compounds to the receiver plate wells (basolateral compartment), and transfer 50 μL sample (DO sample) immediately from the basolateral compartment to a new 96-well plate. Fill the Transwell insert (apical compartment) with 75 μL of HBSS (10 mM HEPES, pH 7.4). Time 0 samples were prepared by transferring 50 μL of 5 μM working solution to wells of the 96-deepwell plate, followed by the addition of 200 μL cold acetonitrile containing appropriate internal standards (100 nM alprazolam, 200 nM labetalol, 200 nM caffeine and 200 nM diclofenac). The plates were incubated at 37° C. for 2 hours. […] Samples were vortexed for 5 minutes and then centrifuged at 3,220 g for 40 minutes. An aliquot of 100 μL of the supernatant was mixed with 100 μL of ultra-pure water to use for LC-MS/MS analysis. To determine the Lucifer Yellow leakage after 2 hour transport period, stock solution of Lucifer yellow was prepared in water and diluted with HBSS (10 mM HEPES, pH 7.4) to reach the final concentration of 100 μM. 100 μL of the Lucifer yellow solution was added to each Transwell insert (apical compartment), followed by filling the wells in the receiver plate (basolateral compartment) with 300 μL of HBSS (10 mM HEPES, pH 7.4). The plates were incubated at 37° C. for 30 minutes. 80 μL samples were removed directly from the apical and basolateral wells (using the basolateral access holes) and transferred to wells of new 96 wells plates.
(In general: Caco-2 cells form a polarised layer with tight junctions and transporters.)

Take `C[C@@H]1Cc2cc(C(N)=O)cnc2N1` [Compound 11, (2R)-2-methyl-2,3-dihydro-1H-pyrrolo[2,3-b]pyridine-5-carboxamide]: under “Caco-2, pH 7.4”, the Papp A→B at 2 h, 5 μM worked out at 27.5 ×10⁻⁶ cm/s; the Papp B→A at 2 h, 5 μM came to 21.8 ×10⁻⁶ cm/s; the efflux ratio at 2 h, 5 μM stood at 0.79. The recovery at 2 h, 5 µM (Caco-2, pH 7.4, Recovery (%) AP-BL) is 102%. The same compound showed a recovery at 2 h, 5 µM (Caco-2, pH 7.4, Recovery (%) BL-AP) of 106%.

Source of the values: patent publication US20250368638A1, “BICYCLIC INHIBITORS OF NICOTINAMIDE […], COMPOSITIONS AND USES THEREOF” (President and Fellows of Harvard College, priority 2021, published 2025).
